From patent US11634378B2, “Compounds and methods targeting GPER in calcium disorders” (Saint Louis University, priority 2017, dated 2023)

What was measured:
GPER [1] = target: T1, GPER (Homo sapiens, UniProt Q99527); assay: Calcium mobilization antagonism assay in indo1-AM-loaded HL-60 cells (against EC80 of G-1); format: cell-based; details: Table 3; HL-60 cells endogenously expressing GPER; mean ± SD of three IC50 values from triplicates; read-out: IC50 (nM) of the inhibition of calcium mobilization
T1 construct: HL-60 cells (a human promyelocytic leukemia cell line) which endogenously expresses GPER; host or cells: HL-60
Method: Human Myelocytic Leukemia (HL-60) cells were grown in phenol red free media containing 10% […] fetal bovine serum (FBS), 1% Pen-Strep, and 1% Glutamax. Cells were grown to no more than 1×10^6 cells/mL to prevent differentiation before being split. Prior to assay cells were transferred to phenol red free media containing charcoal-stripped FBS. On the day of the assay cells were centrifuged down at 16.4 G for 5 minutes and washed with 50:1 HBSS/HEPES. Cells were resuspended at 1×10^7 cells/mL in 50:1 HBSS/HEPES. To the resuspended cells, 0.05% pluronic acid and 5 uM of fluorescent calcium indicator, Indo-1AM, were added. The dye solution was incubated for 0.5 hrs at room temperature with rocking. After 30 minutes cells were spun down, and resuspended in 50:1 HBSS/HEPES. Cells were placed on ice for at least 5 minutes and then resuspended in 8.5 mL of 50:1 HBSS/HEPES (containing probenacid) for agonism assays or 6.5 mL of 50:1 HBSS/HEPES (containing probenacid) for antagonism assays. For agonism assays 160 μL of cell suspension were added to a 96-well plate and were incubated at 37° for 10 minutes in a FlexStation® 3 plate reader (Molecular Devices). Inside the plate reader, 40 μL of agonist were added to each well and excited with 350 nm and read at emissions of 405 nm and 490 nm. For antagonist assays, 120 μL of cell suspension were added to a 96-well plate. In addition to the cell suspension 40 μL of antagonist were added to the wells. Cells with antagonists were incubated at 37° for 15 minutes in FlexStation® 3 plate reader (Molecular Devices). Inside the plate reader, 40 μL of agonist at the EC80 were added to each well and excited with 350 nm and read at emissions of 405 nm and 490 nm.
In vitro biological evaluation using calcium mobilization. HL-60 cells were grown in 10% charcoal-stripped RPMI 72 hours before assays were performed. Cells were centrifuged and counted with a hemocytometer from Hausser Scientific (Bedford, Mass.). The assay required 100,000 cells per well, for a total number of cells on a 96-well plate assay of about 1×10 (Matthews and Gustafsson, 2003). HL-60 cells (1×10 (Matthews and Gustafsson, 2003)) were incubated in 50:1 Hanks balanced salt solution (Millipore Sigma, Saint Louis, Mo. and HEPES (Gibco by Life Technologies, Gaithersburg, Md.) containing 5 μM indo1-AM (Thermo Fischer Scientific, Waltham, Mass.) and 0.05% pluronic acid (AAT Bioquest Inc., Sunnyvale, Calif.) for 0.5 h at RT. Cells were spun down and washed with 50:1 HBSS/HEPES, and resuspended in media. Resuspension was placed on ice for no longer than 5 mins. Cells were loaded into plate at 100,000 cells/well. For agonist cells were immediately incubated for 15 mins at 37° C. Following the 15 mins incubation FlexStation 3 Multimode Plate Reader (Molecular Devices, Sunnyvale, Calif.) added the appropriate amount of agonist and was read for 150 seconds at 37° C. For antagonists once the cells were seeded, antagonist was added and incubated for 15 mins at 37° C. After 15 mins of equilibration, the EC80 of G-1 was added by the FlexStation and read for 150 secs at 37° C. Calcium mobilization was determined ratiometrically using λex 350 nm and λem 405/490 nm.

ERβ = target: T2, ERβ (Homo sapiens, UniProt Q92731); assay: ERβ PolarScreen fluorescence polarization competitor assay; format: binding; details: below 10 μM
T2 construct: purchased Invitrogen (Carlsbad, Calif.)
Method: (§1) ERα and ERβ Fluorescence Polarization Assay. The ERα and ERβ PolarScreen™ Competitor Assays by Invitrogen (Carlsbad, Calif.) were purchased. The concentrations of the ERα and ERβ enzyme varied between the two assays. A 4× sample of ERα was prepared for a final concentration of 75 nM. Conversely, a 4× sample of ERβ was prepared for a final concentration of 23 nM within the assay. For both ERα and ERβ a 4× aliquot of Fluoromone was prepared for a final assay concentration of 4.5 nM. Despite the differences in concentration of ERα and ERβ, the binding assay protocol for the two different enzymes remained the same. Drug dilutions were prepared for a 2× dilution in the ER specific buffer that was provided within the assay kit. In addition to the drug dilutions a 2× aliquot of Fluoromone was prepared by adding 10 μL of 4× with 10 μL of ER specific buffer. A 2× dilution of enzyme and fluorophore was achieved by adding equal portions of each to each other. To a black 384-plate well plate, 10 μL of compound were added to the wells followed by 10 μL of the 2× mixture of enzyme and fluoromone. Two controls were included in the plate design. In one control, enzyme and compound were omitted so that only ER specific buffer and fluoromone remained. A separate control contained the enzyme and fluoromone control. […] The plate was incubated at RT for 2 hours before being read with λex 485 nm and λem 535 nm.

ERα = target: T3, ERα (Homo sapiens, UniProt P03372); assay: ERα PolarScreen fluorescence polarization competitor assay; format: binding
T3 construct: purchased Invitrogen (Carlsbad, Calif.)
T3 sequence (P03372 1-595): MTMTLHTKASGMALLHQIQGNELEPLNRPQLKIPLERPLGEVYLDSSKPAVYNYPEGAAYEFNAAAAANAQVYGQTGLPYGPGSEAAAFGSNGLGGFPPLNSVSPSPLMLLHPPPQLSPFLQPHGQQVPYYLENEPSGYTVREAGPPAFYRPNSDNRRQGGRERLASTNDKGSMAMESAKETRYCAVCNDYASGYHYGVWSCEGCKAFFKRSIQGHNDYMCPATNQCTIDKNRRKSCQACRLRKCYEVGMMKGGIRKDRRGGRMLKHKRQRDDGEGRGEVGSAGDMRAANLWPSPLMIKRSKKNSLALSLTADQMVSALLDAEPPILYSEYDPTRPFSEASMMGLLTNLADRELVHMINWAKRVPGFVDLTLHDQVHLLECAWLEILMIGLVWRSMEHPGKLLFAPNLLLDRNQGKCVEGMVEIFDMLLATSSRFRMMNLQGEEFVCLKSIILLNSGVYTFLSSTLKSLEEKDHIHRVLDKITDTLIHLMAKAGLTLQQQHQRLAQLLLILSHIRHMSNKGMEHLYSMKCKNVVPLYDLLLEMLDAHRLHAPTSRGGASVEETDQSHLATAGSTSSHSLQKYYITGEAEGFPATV
Method: as §1

GPER [2] = target: T1, GPER; assay: cAMP HTRF antagonism assay (G-1 induced inhibition of adenylate cyclase) in HL-60 cells; format: cell-based
Method: In vitro cAMP biological evaluation. A homogeneous time resolved fluorescence (HTRF®) components for cAMP was purchased by CisBio (Bedford, Mass.). HL-60 cells were grown in 10% charcoal-stripped RPMI media for 72 hours prior to assays. Cells were centrifuged and counted with a hemocytometer from Hausser Scientific (Horsham, Pa.). The total number of cells needed to complete the assay was determined based upon 8,000 cells/well. The determined number of cells was diluted in 5:1 (5×) stimulation buffer contain 500 μM of 3-isobutyl-1-methylxanthine (IBMX) (Sigma Aldrich, Saint Louis, Mo.). To an HTRF 96-well low volume white plate from CisBio, 5 μL of cold cell suspension was added to each plate, followed by 4 μL of (2.5×) of agonist or stimulation buffer (negative control and non-stimulated cells). Cells were covered with a clear plastic film and incubated at 37° C. for 15 mins in an incubator. After 15 mins cell 1 μL of 10 μM (10×) forskolin was added to each well. The plate was once again sealed and incubated at 37° C. for 15 mins. After 15 mins 5 μL of cAMP-d2 (acceptor) was added to all wells, including controls. Conversely, 5 μL of monoclonal anti-cAMP Eu3^+ cryptate (donor) was added to only the wells with test compound and non-stimulated cells. Following addition, the plate was sealed, covered with aluminum foil, and incubated at room temperature for 30 mins. After the allotted time cells were read using Flexstation3 and with λex 314 nm and λem 665 nm. For an antagonism platform the procedure was slightly altered. The EC80 of G-1 was recalculated based upon cAMP agonism results. To the plate, 2 μL of (5×) antagonist were added dose wise followed by the addition of 5 μL of cold cell suspension to all wells (top and bottom well were designated as G-1 control and forskolin control, respectively). Cells and antagonists were incubated for 15 mins at 37° C. After 15 mins, 2 μL of the (5×) EC80 of G-1 was added to wells with antagonist. […] Cells were allowed to equilibrate at room temperature for 30 minutes before being read at λex 314 nm and λem 665 nm.

T1 sequence (Q99527 whole entry): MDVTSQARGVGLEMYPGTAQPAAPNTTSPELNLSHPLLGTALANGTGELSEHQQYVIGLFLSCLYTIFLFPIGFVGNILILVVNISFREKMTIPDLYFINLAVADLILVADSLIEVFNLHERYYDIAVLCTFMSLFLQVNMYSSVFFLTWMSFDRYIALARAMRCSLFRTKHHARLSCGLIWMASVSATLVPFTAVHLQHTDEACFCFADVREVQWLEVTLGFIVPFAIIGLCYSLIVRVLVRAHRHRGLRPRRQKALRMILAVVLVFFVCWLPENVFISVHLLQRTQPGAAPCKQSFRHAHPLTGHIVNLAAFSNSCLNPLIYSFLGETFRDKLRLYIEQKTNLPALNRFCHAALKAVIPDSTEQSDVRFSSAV
T2 sequence (Q92731 whole entry): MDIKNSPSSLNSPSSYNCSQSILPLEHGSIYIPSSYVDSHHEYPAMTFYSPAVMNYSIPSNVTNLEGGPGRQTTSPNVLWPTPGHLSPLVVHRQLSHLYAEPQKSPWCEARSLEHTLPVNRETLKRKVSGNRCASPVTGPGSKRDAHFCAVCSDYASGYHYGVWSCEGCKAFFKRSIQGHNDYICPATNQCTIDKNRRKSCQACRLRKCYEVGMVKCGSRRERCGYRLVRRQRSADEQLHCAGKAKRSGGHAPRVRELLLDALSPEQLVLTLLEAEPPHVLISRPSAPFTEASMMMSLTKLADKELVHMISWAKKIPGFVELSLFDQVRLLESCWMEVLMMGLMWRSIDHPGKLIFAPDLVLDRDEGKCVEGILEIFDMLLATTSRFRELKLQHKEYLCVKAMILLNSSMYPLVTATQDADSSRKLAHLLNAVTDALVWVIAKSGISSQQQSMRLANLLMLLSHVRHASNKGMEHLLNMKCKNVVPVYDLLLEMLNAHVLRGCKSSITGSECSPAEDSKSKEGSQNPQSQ

Compound	IC50 (GPER [1])	also measured
CC(C)c1ccc(NCc2ccc3ccccc3c2)c(C2CCCCC2)c1 [Compound 5]	260 ± 110 nM	–
CC(C)(C)c1ccc(NCc2ccc(-c3ccccc3)cc2)c(C2CCCCC2)c1 [Compound 20]	132 ± 145 nM	–
Cc1ccc(CNc2ccc(C(C)(C)C)cc2C2CCCCC2)cc1 [Compound 21]	60.8 ± 18 nM	ERβ binding (ERβ): do not exhibit binding; ERα binding (ERα; 10 μM (highest concentration)): a low level of binding; ERα binding (ERα; below 10 μM): do not exhibit binding; Antagonism of G-1 induced inhibition of adenylate cyclase (GPER [2]; 100 nM): also observed, less so; Antagonism of G-1 induced inhibition of adenylate cyclase (GPER [2]; 1 μM exposure): caused a decrease in adenylate cyclase inhibition; Reduction of G-1 induced inhibition of cAMP formation / adenylate cyclase (GPER [2]; EC80 of G-1, 1 μM forskolin, concentration not given): able to decrease inhibition of adenylate cyclase
COc1ccc(CNc2ccc(C(C)(C)C)cc2C2CCCCC2)cc1 [Compound 22]	874 ± 49 nM	–
CC(C)(C)c1ccc(NCc2ccccc2)c(C2CCCCC2)c1 [Compound 23]	331 ± 160 nM	–
CC(C)(C)c1ccc(NCc2ccc(Cl)cc2)c(C2CCCCC2)c1 [Compound 24]	141 ± 14 nM	–
CC(C)(C)c1ccc(NCc2ccc(Cl)c(Cl)c2)c(C2CCCCC2)c1 [Compound 25]	657 ± 94 nM	–
